SMILES strings stand for the structures. pKd: −log10 of the molar value. Where two headings read alike, the source gives them in different places.

Consider 15 compounds from patent US20220380341A1, “INHIBITORS OF HIV-1 NEF FOR THE TREATMENT OF HIV DISEASE” (priority 2018, published 2022).

Series [1] concerns HIV-1NL4-3. Briefly: HIV-1 infectivity assay in TZM-bl reporter cell line (LTR-luciferase, 48 h). The format is cell-based. As to conditions: for inhibition at 1 µM: Human immunodeficiency virus 1, TZM-bl. Summed up: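 TZM-bl cells infected with HIV-1NL4-3 ± compound (1 μM), luciferase measured at 48 h. Normalization: DMSO/wild-type = 0% inhibition, DMSO/Nef-defective = 100% of Nef-dependent effect.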

In series [2] the test system is TZM-bl cell line. The format is cell-based. The method in brief: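 Read-out is luciferase from an integrated HIV-1 LTR reporter in TZM-bl cells, 48 h after HIV-1NL4-3 infection in the presence of 1 μM compound. Scale set by DMSO-treated wild-type-infected cells (0%) and Nef-defective virus (100% Nef-dependent effect). Cell Titer Blue measures cytotoxicity without virus.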

The target in series [3] is HIV-1 NefNL4-3 (Human immunodeficiency virus type 1 group M subtype B, UniProt P03406, A33V/T15A/T51N/V11I). Briefly: Surface plasmon resonance binding to recombinant full-length Nef (NL4-3). As to conditions: for RU30/RUNef (extent of binding): response units at 30 μM relative to Nef immobilized on the SPR chip; for Nef NL4-3 Binding, SPR 1:1 or 2-site fitting KD1: Table 2. In general terms: In SPR one partner is held on a chip, and binding of the other changes the refractive index at the surface.

Setting [4] is: 48 h, Table 1, TZM-bl cells, 1 μM, 48 h, 100% = Nef-defective HIV-1, read-out: HIV-1 Infectivity % Inhibition Norm. to Δ-Nef @ 1 μM.
Setting [5] is: 1.0 μM, TZM-bl reporter cell line, Table 4, read-out: % Infectivity Inhibition.
Where [6] appears, read: KD, M, Table 4, SPR fit 1:1 Langmuir, KD = koff/kon.
The mark [7] stands for this setting: Table 4, 1:1 Langmuir fit, T = 1/koff.
The mark [8] stands for this setting: 48 h, Table 2, TZM-bl cells, 1 μM, 48 h, 100% = Nef-defective HIV-1, read-out: HIV-1 Infectivity % Inhibition Norm. to Δ-Nef @ 1 μM.
Setting [9] is: 1:1 Langmuir fit where the KD2 cell says '1 to 1 fitting', else 2-site fit.
The mark [10] stands for this setting: Table 4, 2-step induced fit, T = 1/koff2.

In general, inhibition refers to the drop in the measured response relative to a control, in per cent. As for `O=C(c1cnccn1)N1CCCC1c1nn(-c2nc3ccccc3[nH]2)c(O)c1CCc1ccc(F)cc1` (centres unmarked) [Compound I-759, 1-(1H-1,3-benzodiazol-2-yl)-4-[2-(4-fluorophenyl)ethyl]-3-[1-(pyrazine-2-carbonyl)pyrrolidin-2-yl]-1H-pyrazol-5-ol], the inhibition at 1 µM in series [1] (setting [4]) is -7.6%. The “Percent Viability @ 1 μM (TZM-bl cells)” value in series [2] (human, 1 μM) is 98.2%. Also, the pKd in series [3] was 6.66.

For `Oc1c(CC2CCCOC2)c(-c2ccc(F)cc2)nn1-c1nc2ccccc2[nH]1` (centres unmarked) [Compound I-175, 1-(1H-1,3-benzodiazol-2-yl)-3-(4-fluorophenyl)-4-[(oxan-3-yl)methyl]-1H-pyrazol-5-ol], the inhibition at 1 µM in series [1] (setting [5]) is 67.2%. Moreover, the “% Cell Viability” value in series [2] (human, 1 μM) came out at 88.8%. Moreover, the pKd in series [3] (setting [6]) is 6.22. Also, in series [3] (setting [7]), the “T, minutes (residence time)” value came out at 7.72E + 00 minutes. Further, the “RU30/RUNef (extent of binding)” value in series [3] is reported as 6.67E- 04.

Consider `O=C(c1cnccn1)N1CCC(Cc2nn(-c3nc4ccccc4[nH]3)c(O)c2CCc2ccc(F)cc2)CC1` [Compound I-767, 1-(1H-1,3-benzodiazol-2-yl)-4-[2-(4-fluorophenyl)ethyl]-3-{[1-(pyrazine-2-carbonyl)piperidin-4-yl]methyl}-1H-pyrazol-5-ol], for which the inhibition at 1 µM in series [1] (setting [4]) worked out at 18.9%. Besides, in series [2] (human, 1 μM), the “Percent Viability @ 1 μM (TZM-bl cells)” value is recorded as 97.6%. For the same compound, the pKd in series [3] was 6.37.

Consider `Cn1cccc(CCc2c(-c3ccc(C(F)(F)F)cc3)nn(-c3nc4ccccc4[nH]3)c2O)c1=O` [Compound I-137, 3-{2-[1-(1H-1,3-benzodiazol-2-yl)-5-hydroxy-3-[4-(trifluoromethyl)phenyl]-1H-pyrazol-4-yl]ethyl}-1-methyl-1,2-dihydropyridin-2-one], for which the inhibition at 1 µM in series [1] (setting [5]) worked out at 0%. Also, the inhibition at 1 µM in series [1] (setting [4]) is -1.4%. In addition, in series [2] (human, 1 μM), the “% Cell Viability” value was 99.4% and the “Percent Viability @ 1 μM (TZM-bl cells)” value stood at 99.4%. Moreover, in series [3], the pKd was 6.61 and the “RU30/RUNef (extent of binding)” value amounted to 1.02E- 03. Besides, in series [3] (setting [6]), the pKd was 6.61. Further, in series [3] (setting [7]), the “T, minutes (residence time)” value is 5.36E + 00 minutes.

On to `Oc1c(CC2CCOCC2)c(C2CC2)nn1-c1cc(C(F)(F)F)n[nH]1` [Compound I-622, 3-cyclopropyl-4-[(oxan-4-yl)methyl]-5′-(trifluoromethyl)-2′H-[1,3′-bipyrazol]-5-ol], for which, in series [1] (setting [8]), the inhibition at 1 µM amounted to 4.9%. The “Percent Viability @ 1 μM (TZM-bl cells)” value in series [2] (human, 1 μM) was determined as 98.5%. Also, the “Nef NL4-3 Binding, SPR 1:1 or 2-site fitting KD1” value in series [3] (setting [9]) is recorded as “No interaction”.

Consider `CS(=O)(=O)c1cccc(-c2nn(-c3cc(C(F)(F)F)n[nH]3)c(O)c2CCC2CCOCC2)c1` [Compound I-608, 3-(3-methanesulfonylphenyl)-4-[2-(oxan-4-yl)ethyl]-5′-(trifluoromethyl)-2′H-[1,3′-bipyrazol]-5-ol], for which, in series [1] (setting [8]), the inhibition at 1 µM was found to be 5.3%. The “Percent Viability @ 1 μM (TZM-bl cells)” value in series [2] (human, 1 μM) is recorded as 101.2%. The “Nef NL4-3 Binding, SPR 1:1 or 2-site fitting KD1” value in series [3] (setting [9]) was “No interaction”.

Take `Cc1ccn(CCc2c(-c3ccc(C(F)(F)F)cc3)nn(-c3nc4ccccc4[nH]3)c2O)n1` [Compound I-128, 1-(1H-1,3-benzodiazol-2-yl)-4-[2-(3-methyl-1H-pyrazol-1-yl)ethyl]-3-[4-(trifluoromethyl)phenyl]-1H-pyrazol-5-ol]: the inhibition at 1 µM in series [1] (setting [5]) and in series [1] (setting [4]) was 33.5% in each case. Further, in series [2] (human, 1 μM), the “% Cell Viability” value worked out at 97.9%. The “Percent Viability @ 1 μM (TZM-bl cells)” value in series [2] (human, 1 μM) amounted to 97.9%. In addition, in series [3] (setting [10]), the “T, minutes (residence time)” value is listed as 1.20E + 03 minutes. The pKd in series [3] (Table 4, SPR fit 2-step induced fit, KD = koff/kon × koff2/(koff2 + kon2)) is 8.12; in series [3] (read-out: Nef NL4-3 Binding, SPR 1:1 or 2-site fitting KD1, Table 1, 1:1 Langmuir fit where the KD2 cell says '1 to 1 fitting', else 2-site fit), 9.84; in series [3] (read-out: Nef NL4-3 Binding, SPR 1:1 or 2-site fitting KD2, Table 1, 2-site fit, second component), 5.36; in series [3] (read-out: Nef NL4-3 Binding, SPR 2-state fitting KD, Table 1, 2-step induced-fit model) it was 8.12. Besides, the “RU30/RUNef (extent of binding)” value in series [3] is reported as 5.56E- 03.

As for `Oc1c(CC2CCOCC2)c(C2CC(F)(F)C2)nn1-c1nc2cccnc2[nH]1` [Compound I-316, 3-(3,3-difluorocyclobutyl)-1-{3H-imidazo[4,5-b]pyridin-2-yl}-4-[(oxan-4-yl)methyl]-1H-pyrazol-5-ol], the inhibition at 1 µM in series [1] (setting [5]) came out at 32.8%. In addition, the “% Cell Viability” value in series [2] (human, 1 μM) came out at 99.7%. In addition, in series [3] (setting [6]), the pKd was 5.35. Further, the “T, minutes (residence time)” value in series [3] (setting [7]) amounted to 5.19E + 00 minutes. Also, the “RU30/RUNef (extent of binding)” value in series [3] is 1.19E- 03.

Take `CC(C)(C)OC(=O)N1CCCC(Cc2nn(-c3nc4ccccc4[nH]3)c(O)c2CCc2ccc(F)cc2)C1` (centres unmarked) [Compound I-214, tert-butyl 3-{[1-(1H-1,3-benzodiazol-2-yl)-4-[2-(4-fluorophenyl)ethyl]-5-hydroxy-1H-pyrazol-3-yl]methyl}piperidine-1-carboxylate]: the inhibition at 1 µM in series [1] (setting [4]) was -5.5%. Besides, in series [2] (human, 1 μM), the “Percent Viability @ 1 μM (TZM-bl cells)” value was 99.9%. Also, in series [3], the pKd was 7.68.

As for `O=S(=O)(NCc1nn(-c2nc3ccccc3[nH]2)c(O)c1CCc1ccc(F)cc1)c1cccnc1` [Compound I-774, N-{[1-(1H-1,3-benzodiazol-2-yl)-4-[2-(4-fluorophenyl)ethyl]-5-hydroxy-1H-pyrazo1-3-y1]methyl}pyridine-3-sulfonamide], the results for the inhibition at 1 µM in series [1] (setting [5]) and in series [1] (setting [4]) were 0% and -0.1%, respectively. For the same compound, in series [2] (human, 1 μM), the “% Cell Viability” value is reported as 94.4%. Besides, in series [2] (human, 1 μM), the “Percent Viability @ 1 μM (TZM-bl cells)” value amounted to 94.4%. The pKd in series [3] was 6.60; in series [3] (KD, M, Table 4, SPR fit 2-step induced fit, KD = koff/kon × koff2/(koff2 + kon2)), 7.56; in series [3] (Nef NL4-3 Binding, SPR 2-state fitting KD, Table 1, 2-step induced-fit model), 7.56. In series [3] (setting [10]), the “T, minutes (residence time)” value is 1.09E + 02 minutes. Besides, in series [3], the “RU30/RUNef (extent of binding)” value is recorded as 2.56E- 03.

On to `O=C(COCc1ccncc1)N1CCC(Cc2nn(-c3nc4ccccc4[nH]3)c(O)c2CCc2ccc(F)cc2)CC1` [Compound I-769, 1-(4-{[1-(1H-1,3-benzodiazol-2-yl)-4-[2-(4-fluorophenyl)ethyl]-5-hydroxy-1H-pyrazol-3-yl]methyl}piperidin-1-yl)-2-[(pyridin-4-yl)methoxy]ethan-1-one], for which, in series [1] (1.0 μM, TZM-bl reporter cell line, Table 4), the “% Infectivity Inhibition” value is listed as 26.5%. Further, in series [1] (Table 1, TZM-bl cells, 1 μM, 48 h, 100% = Nef-defective HIV-1), the “HIV-1 Infectivity % Inhibition Norm. to Δ-Nef @ 1 μM” value amounted to 26.5%. The “% Cell Viability” value in series [2] (1.0 μM, uninfected TZM-bl, CellTiter-Blue, Table 4) amounted to 98.8%. The “Percent Viability @ 1 μM (TZM-bl cells)” value in series [2] (Table 1, uninfected TZM-bl cells, 1 μM, Cell Titer Blue) turned out to be 98.8%. For the same compound, the pKd in series [3] (Table 1, 1:1 Langmuir fit where the KD2 cell says '1 to 1 fitting', else 2-site fit, read-out: Nef NL4-3 Binding, SPR 1:1 or 2-site fitting KD1) is 6.10; in series [3] (Table 4, SPR fit 1:1 Langmuir, KD = koff/kon, read-out: KD) it was 6.10. The “T, minutes (residence time)” value in series [3] (setting [7]) is listed as 9.47E + 00 minutes. In series [3], the “RU30/RUNef (extent of binding)” value worked out at 4.88E- 03.

For the compound `Nc1c(CCC2CCOCC2)c(-c2ccc(F)cc2)nn1-c1cc(C(F)(F)F)n[nH]1` [Compound I-1402], in series [1] (setting [8]), the inhibition at 1 µM turned out to be 8.7%. Besides, the “Percent Viability @ 1 μM (TZM-bl cells)” value in series [2] (human, 1 μM) stood at 102.2%. Further, the pKd in series [3] is 5.32.

For `O=S(=O)(C1CCCC1)N1CCC(c2nn(-c3nc4ccccc4[nH]3)c(O)c2CCc2ccc(F)cc2)CC1` [Compound I-753, 1-(1H-1,3-benzodiazol-2-yl)-3-[1-(cyclopentanesulfonyl)piperidin-4-yl]-4-[2-(4-fluorophenyl)ethyl]-1H-pyrazol-5-ol], the inhibition at 1 µM in series [1] (setting [4]) is 76.5%. For the same compound, the “Percent Viability @ 1 μM (TZM-bl cells)” value in series [2] (human, 1 μM) is 95.8%. In series [3], the pKd was 7.69.

In the case of `O=C(c1cnccn1)N1CCC(c2nn(-c3nc4ccccc4[nH]3)c(O)c2CCc2ccc(F)cc2)CC1` [Compound I-728, 1-(1H-1,3-benzodiazol-2-yl)-4-[2-(4-fluorophenyl)ethyl]-3-[1-(pyrazine-2-carbonyl)piperidin-4-yl]-1H-pyrazol-5-ol], the inhibition at 1 µM in series [1] (setting [4]) was 53.7%. Also, the “Percent Viability @ 1 μM (TZM-bl cells)” value in series [2] (human, 1 μM) came out at 99.1%. For the same compound, the pKd in series [3] was 6.85.

Regarding `CC(=O)N1CCCC(Cc2c(C3CC3)nn(-c3nc4ccccc4[nH]3)c2O)C1` (centres unmarked) [Compound I-780, 1-(3-{[1-(1H-1,3-benzodiazol-2-yl)-3-cyclopropyl-5-hydroxy-1H-pyrazol-4-yl]methyl}piperidin-1-yl)ethan-1-one], the inhibition at 1 µM in series [1] (setting [5]) was found to be 0%. The “% Cell Viability” value in series [2] (human, 1 μM) amounted to 99%. In addition, the pKd in series [3] (setting [6]) was 5.39. For the same compound, the “T, minutes (residence time)” value in series [3] (setting [7]) came out at 8.13E + 00 minutes. The “RU30/RUNef (extent of binding)” value in series [3] stood at 4.47E- 03.
